# Results: patent US20210115040A1, “OGA INHIBITOR COMPOUNDS” (Janssen Pharmaceutica NV, priority 2018, published 2021)
# Target: T1, recombinant human Meningioma Expressed Antigen 5 (MGEA5), also referred to as O-GlcNAcase (OGA) (Homo sapiens, UniProt O60502)
# T1 construct: Full length OGA enzyme was purchased at OriGene (cat #TP322411); purchased OriGene TP322411
# T1 sequence (O60502 1-916): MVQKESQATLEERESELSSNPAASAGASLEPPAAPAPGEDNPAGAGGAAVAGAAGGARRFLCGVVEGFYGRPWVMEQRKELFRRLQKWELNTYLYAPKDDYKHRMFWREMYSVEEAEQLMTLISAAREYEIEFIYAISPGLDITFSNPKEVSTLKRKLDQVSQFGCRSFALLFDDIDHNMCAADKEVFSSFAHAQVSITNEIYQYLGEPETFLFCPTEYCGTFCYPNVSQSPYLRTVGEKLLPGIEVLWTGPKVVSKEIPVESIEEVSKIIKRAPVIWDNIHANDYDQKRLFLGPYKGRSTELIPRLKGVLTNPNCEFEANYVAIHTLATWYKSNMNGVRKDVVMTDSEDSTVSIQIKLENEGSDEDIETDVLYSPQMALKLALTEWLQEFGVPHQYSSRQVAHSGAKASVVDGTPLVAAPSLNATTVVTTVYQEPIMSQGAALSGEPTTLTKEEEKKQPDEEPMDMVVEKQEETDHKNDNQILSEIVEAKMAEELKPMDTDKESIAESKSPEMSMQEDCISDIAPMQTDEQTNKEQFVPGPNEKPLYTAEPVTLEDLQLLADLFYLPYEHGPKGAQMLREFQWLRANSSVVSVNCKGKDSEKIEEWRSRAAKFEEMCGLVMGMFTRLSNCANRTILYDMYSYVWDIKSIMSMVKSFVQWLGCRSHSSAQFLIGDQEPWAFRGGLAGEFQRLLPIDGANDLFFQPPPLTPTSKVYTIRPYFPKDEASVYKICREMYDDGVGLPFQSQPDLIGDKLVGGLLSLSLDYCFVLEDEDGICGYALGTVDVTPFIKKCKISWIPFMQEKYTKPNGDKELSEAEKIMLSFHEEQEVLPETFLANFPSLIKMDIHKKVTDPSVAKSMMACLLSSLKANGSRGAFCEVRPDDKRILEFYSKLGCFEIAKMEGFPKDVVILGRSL
# Experiment: OGA biochemical assay (inhibition of FM-GlcNAc hydrolysis, fluorescence)
# Settings: FM-GlcNAc substrate; for IC50: 6 h at room temperature, read-out: Enzymatic hOGA, pIC50 (converted); for Emax: read-out: Enzymatic Emax (%)
# Text: The assay is based on the inhibition of the hydrolysis of fluorescein mono-β-D-N-Acetyl-Glucosamine (FM-GlcNAc) (Mariappa et al. 2015, Biochem J 470:255) by the recombinant human Meningioma Expressed Antigen 5 (MGEA5), also referred to as O-GlcNAcase (OGA). The hydrolysis FM-GlcNAc (Marker Gene technologies, cat #M1485) results in the formation of β-D-N-glucosamineacetate and fluorescein. The fluorescence of the latter can be measured at excitation wavelength 485 nm and emission wavelength 538 nm. An increase in enzyme activity results in an increase in fluorescence signal. Full length OGA enzyme was purchased at OriGene (cat #TP322411). The enzyme was stored in 25 mM Tris.HCl, pH 7.3, 100 mM glycine, 10% glycerol at −20° C. Thiamet G and GlcNAcStatin were tested as reference compounds (Yuzwa et al. 2008 Nature Chemical Biology 4:483; Yuzwa et al. 2012 Nature Chemical Biology 8:393). The assay was performed in 200 mM Citrate/phosphate buffer supplemented with 0.005% Tween-20. 35.6 g Na2HPO4 2H2O (Sigma, #C0759) were dissolved in 1 L water to obtain a 200 mM solution. 19.2 g citric acid (Merck, #1.06580) was dissolved in 1 L water to obtain a 100 mM solution. pH of the sodiumphosphate solution was adjusted with the citric acid solution to 7.2. The buffer to stop the reaction consists of a 500 mM Carbonate buffer, pH 11.0. 734 mg FM-GlcNAc were dissolved in 5.48 mL DMSO to obtain a 250 mM solution and was stored at −20° C. OGA was used at a 2 nM concentration and FM-GlcNAc at a 100 uM final concentration. Dilutions were prepared in assay buffer.
# 50 nl of a compound dissolved in DMSO was dispensed on Black Proxiplate™ 384 Plus Assay plates (Perkin Elmer, #6008269) and 3 μl fl-OGA enzyme mix added subsequently. Plates were pre-incubated for 60 min at room temperature and then 2 μl FM-GlcNAc substrate mix added. […] Plates were briefly centrifuged for 1 min at 1000 rpm and incubate at room temperature for 6 h. To stop the reaction 5 μl STOP buffer were added and plates centrifuge again 1 min at 1000 rpm. Fluorescence was quantified in the Thermo Scientific Fluoroskan Ascent or the PerkinElmer EnVision with excitation wavelength 485 nm and emission wavelength 538 nm.
# For analysis a best-fit curve is fitted by a minimum sum of squares method. From this an IC50 value and Hill coefficient was obtained. High control (no inhibitor) and low control (saturating concentrations of standard inhibitor) were used to define the minimum and maximum values.
IC50,Emax (maximal effect),Enzymatic Emax (%) (maximal effect),Compound
126 nM,100%,–,Cc1cc(C[C@H]2CCCN(C(C)c3ccc4occc4n3)C2)cc(C)n1 (mixture of isomers) [Compound 38]
100 nM,99%,–,COc1cc(C[C@@H]2CCN(C(C)c3ccc4oc(C)nc4n3)C2)cc(C)n1 (mixture of isomers) [Compound 28]
251 nM,97%,–,COc1cc(O[C@@H]2CCN(C(C)c3ccc4oc(C)nc4n3)C2)cc(C)n1 (mixture of isomers) [Compound 21ab]
15.8 nM,100%,–,Cc1cc(C[C@H]2CCCN([C@H](C)c3ccc4cn(C)nc4n3)C2)cc(C)n1 (relative stereo) [Compound 12b]
1000 nM,89%,–,Cc1cc(C[C@H]2CCCN(Cc3ccc4[nH]c(C)nc4c3)C2)cc(C)n1 [Compound 10]
794 nM,90%,–,Cc1cc(C[C@H]2CCCN(Cc3ccc4cn(C)nc4c3)C2)cc(C)n1 [Compound 17]
200 nM,99%,–,Cc1cc(C[C@H]2CCN([C@@H](C)c3ccc4oc(C)nc4n3)C2)cc(C)n1 [Compound 27a]
> 10000 nM,47%,–,Cc1cc(C[C@H]2CCN([C@H](C)c3ccc4oc(C)nc4n3)C2)cc(C)n1 [Compound 27b]
501 nM,98%,–,"Cc1cc(C[C@H]2CCCN(C(C)c3ccc4sc(C)nc4n3)C2)cc(C)n1 (single isomer, unassigned) [Compound 42a]"
126 nM,103%,–,Cc1cc(C[C@H]2CCN(C(C)c3ccc4oc(C)nc4n3)C2)cc(C(F)(F)F)n1 (mixture of isomers) [Compound 29]
1580 nM,88%,–,Cc1cc(C[C@H]2CCCN([C@@H](C)c3ccc4cn(C)nc4n3)C2)cc(C)n1 (relative stereo) [Compound 12a]
631 nM,96%,–,Cc1cc(OC[C@H]2CCCN([C@@H](C)c3ccc4sc(C)nc4n3)C2)cc(C)n1 [Compound 46a]
158 nM,99%,–,Cc1nc2nc(C(C)N3CC[C@H](Cc4cc(F)cc(F)n4)C3)ccc2o1 (stereo partly shown) [Compound 79]
200 nM,97%,–,COc1cc(C2CCCN(C(C)c3cnc4[nH]c(C)nc4c3)C2)cc(C)n1 (stereo not shown) [Compound 2]
126 nM,99%,–,COc1cc(C[C@@H]2CCN(C(C)c3ccc4sc(C)nc4n3)C2)cc(C)n1 (mixture of isomers) [Compound 44]
316 nM,98%,–,Cc1cc(C2CCCN(C(C)c3cnc4[nH]c(C)nc4c3)C2)cc(C)n1 (stereo not shown) [Compound 1]
63.1 nM,101%,–,Cc1cc(C[C@H]2CCCN(Cc3ccc4oc(C)nc4n3)C2)cc(C)n1 [Compound 36]
> 10000 nM,18%,–,Cc1cc(C[C@H]2CCN(Cc3ccc4nc(C)sc4c3)C2)cc(C)n1 [Compound 55]
3980 nM,77%,–,Cc1cc(C[C@H]2CCCN(Cc3ccc4nc(C)sc4c3)C2)cc(C)n1 [Compound 53]
316 nM,96%,–,Cc1cc(C2CCCN(C(C)c3cnc4[nH]c(C)nc4c3)C2)cc(C(F)(F)F)n1 (stereo not shown) [Compound 3]

IC50,Emax (maximal effect),Enzymatic Emax (%) (maximal effect),Compound
2.51 nM,100%,–,Cc1cc(C[C@@H]2CCN([C@H](C)c3cc4nc(C)oc4cc3F)C2)cc(C)n1 (relative stereo) [Compound 33a]
> 10000 nM,28%,–,"Cc1cc(C[C@H]2CCN(C(C)c3ccc4nc(C)sc4c3)C2)cc(C)n1 (single isomer, unassigned) [Compound 57]"
316 nM,98%,–,Cc1cc(OC[C@@H]2CCCN(C(C)c3ccc4sc(C)nc4n3)C2)cc(C)n1 (mixture of isomers) [Compound 45ab]
63.1 nM,101%,–,Cc1cc(C[C@@H]2CCN([C@@H](C)c3cc4nc(C)oc4cc3F)C2)cc(C)n1 (relative stereo) [Compound 33b]
20 nM,99%,–,Cc1cc(C[C@@H]2CCN(C(C)c3cc4nc(C)oc4cc3F)C2)cc(C)n1 (mixture of isomers) [Compound 33ab]
501 nM,96%,–,COc1cc([C@H]2CCCN([C@@H](C)c3cnc4[nH]c(C)nc4c3)C2)cc(C(F)(F)F)n1 [Compound 4b]
200 nM,101%,–,COc1cc(C[C@H]2CCCN([C@@H](C)c3ccc4oc(C)nc4n3)C2)cc(C)n1 (relative stereo) [Compound 23b]
10 nM,101%,–,Cc1cc(OC[C@H]2CCCN(C(C)c3cc4nc(C)oc4cc3F)C2)cc(C)n1 (mixture of isomers) [Compound 34]
794 nM,94%,–,Cc1cc(OC2CCCN(C(C)c3ccc4[nH]c(C)nc4n3)C2)cc(C(F)(F)F)n1 (stereo not shown) [Compound 5]
7.94 nM,99%,–,Cc1cc(C2CCCN(C(C)c3cc4nc(C)oc4cc3F)C2)cc(C)n1 (racemic) [Compound 32]
126 nM,101%,–,COc1cc(OC2CCCN(C(C)c3ccc4sc(C)nc4n3)C2)cc(C)n1 (stereo not shown) [Compound 41]
> 10000 nM,41%,–,Cc1cc(C[C@H]2CCN(C(C)c3ccc4nc(C)sc4c3)C2)cc(C)n1 (stereo partly shown) [Compound 56]
5010 nM,69%,–,Cc1cc(C[C@H]2CCCN([C@@H](C)c3ccc4oc(C)nc4n3)C2)cc(C(F)(F)F)n1 [Compound 24b]
> 10000 nM,22%,–,COc1cc(O[C@@H]2CCN([C@@H](C)c3ccc4oc(C)nc4n3)C2)cc(C)n1 [Compound 21a]
100 nM,101%,–,Cc1cc(OC[C@@H]2CCCN(C(C)c3cc4nc(C)oc4cc3F)C2)cc(C)n1 (mixture of isomers) [Compound 35]
–,50%,–,COc1cc([C@H]2CCCN([C@H](C)c3cnc4[nH]c(C)nc4c3)C2)cc(C(F)(F)F)n1 [Compound 4a]
7.94 nM,–,100%,"Cc1cc(C[C@H]2CCCN(C(C)c3cnc4[nH]c(C)nc4c3)C2)cc(C)n1 (single isomer, unassigned) [Compound 6b]"
50.1 nM,100%,–,Cc1cc(C[C@@H]2CCN(C(C)c3cnc4[nH]c(C)nc4c3)C2)cc(C)n1 (mixture of isomers) [Compound 7]
501 nM,95%,–,Cc1cc(OC[C@@H]2CCCN([C@H](C)c3ccc4sc(C)nc4n3)C2)cc(C)n1 [Compound 45a]
39.8 nM,101%,–,Cc1cc(C[C@@H]2CCN(C(C)c3ccc4oc(C)nc4n3)C2)cc(C)n1 (mixture of isomers) [Compound 26]
